# Assays:
# BRD4 BD1 = molecular target: T1, BRD4 BD1 (Homo sapiens, UniProt O60885); experiment: AlphaScreen binding assay, BRD4 Bromodomain 1
# T1 construct: made in house
# Method: (§1) The binding of Example compounds to BRD4 Bromodomain 1 and BRD4 Bromodomain 2 was assessed using 384-well AlphaScreen assay technology. His-epitope tagged BRD4 BD144-168 and BRD4 BD2333-460 were cloned, expressed, and purified to homogeneity. BRD4 BD1 and BRD4 BD2 binding and inhibition was assessed by monitoring the engagement of biotinylated Histone H4 (1-21) K5/8/12/16 tetra-acetylated peptide with the targets using the AlphaScreen technology (PerkinElmer). Specifically, in a 384-well black or white flat bottom plate, BRD4 BD1 (50 nM final) or BRD4 BD2 (100 nM final) was combined with peptide (50 nM final for BD1 or 100 nM final for BD2) in 50 mM HEPES (pH 7.3), 100 mM NaCl, 0.1% (w/v) BSA, and 0.01% (w/v) Triton X-100 either in the presence of DMSO (final 1.25% DMSO) or compound dilution series in DMSO. Alpha streptavidin donor beads and Nickel-chelate acceptor beads were added to a final concentration of 10 μg/ml each. After a minimum of 1 hour equilibration, plates were read on a BMG PHERAstar FS multi-label reader (BMG LabTech). The half maximal inhibitory concentration (IC50) values were calculated using IDBS Activity Base software with a four parameter logistic curve fit by the equation y=A+((B−A)/(1+((C/x)^D))), wherein A denotes the bottom plateau of the curve, B denotes the top plateau of the curve, C denotes the x value at the middle of the curve, D denotes the slope factor, x denotes the original known x values, and y denotes the original known y values. Data was fitted using the Levenburg Marquardt algorithm.
# BRD4 BD2 = molecular target: T2, BRD4 BD2 (Homo sapiens, UniProt O60885); experiment: AlphaScreen binding assay, BRD4 Bromodomain 2
# T2 construct: made in house
# Method: as §1
SMILES,IC50 (BRD4 BD1),IC50 (BRD4 BD2)
"CC(=O)N1c2ccc(-c3cnn(C4COC4)c3)cc2N(C(=O)[C@H]2CC2(Cl)Cl)C[C@@H]1C (single isomer, unassigned) [Example I-113]",> 10 µM,> 0.5 µM
"CC(=O)N1c2ccc(-c3ccc(S(C)(=O)=O)cc3)cc2N(C(=O)c2ccco2)CC1CF (stereo not drawn) [Example I-7, 1-(2-(fluoromethyl)-4-(furan-2-carbonyl)-6-(4-(methylsulfonyl)phenyl)-3,4-dihydroquinoxalin-1(2H)-yl)ethan-1-one]",> 10 µM,> 0.5 µM
"CC(=O)N1c2ccc(-c3cnn(-c4nc5ccccc5o4)c3)cc2N(c2nc3ccccc3o2)C[C@@H]1C [Example I-56, (S)-1-(4-(benzo[d]oxazol-2-yl)-6-(1-(benzo[d]oxazol-2-yl)-1H-pyrazol-4-yl)-2-methyl-3,4-dihydroquinoxalin-1(2H)-yl)ethanone]",> 10 µM,> 0.5 µM
"CC(=O)N1c2cnc(-c3ccc(S(C)(=O)=O)cc3)cc2N(C(=O)c2ccco2)C[C@@H]1C [Example I-57, (S)-1-(1-(furan-2-carbonyl)-3-methyl-7-(4-(methylsulfonyl)phenyl)-2,3-dihydropyrido[3,4-b]pyrazin-4(1H)-yl)ethanone]",> 10 µM,0.05 to 0.5 µM
"CC(=O)N1c2ccc(-c3cnn(C4COC4)c3)cc2N(C(=O)OCC2COC2)C[C@@H]1C [Example I-64, (S)-oxetan-3-ylmethyl 4-acetyl-3-methyl-7-(1-(oxetan-3-yl)-1H-pyrazol-4-yl)-3,4-dihydroquinoxaline-1(2H)-carboxylate]",1 to 10 µM,0.05 to 0.5 µM
"CC(=O)N1c2ccc(-c3cnn(C4COC4)c3)cc2N(C(=O)OCCC2COC2)C[C@@H]1C [Example I-67, (S)-2-(oxetan-3-yl)ethyl 4-acetyl-3-methyl-7-(1-(oxetan-3-yl)-1H-pyrazol-4-yl)-3,4-dihydroquinoxaline-1(2H)-carboxylate]",> 10 µM,> 0.5 µM
"CC(=O)N1c2ccc(-c3cnn(C4COC4)c3)cc2N(C(=O)OC2CC3(COC3)C2)C[C@@H]1C [Example I-70, 2-oxaspiro[3.3]heptan-6-yl (3S)-4-acetyl-3-methyl-7-[1-(oxetan-3-yl)-1H-pyrazol-4-yl]-1,2,3,4-tetrahydroquinoxaline-1-carboxylate]",1 to 10 µM,> 0.5 µM
"CC(=O)N1c2ccc(-c3cnn(C4COC4)c3)cc2N(C(=O)OCC2CC2(C)C)C[C@@H]1C (stereo partly drawn) [Example I-73, (2,2-dimethylcyclopropyl)methyl (3S)-4-acetyl-3-methyl-7-(1-(oxetan-3-yl)-1H-pyrazol-4-yl)-3,4-dihydroquinoxaline-1(2H)-carboxylate]",1 to 10 µM,0.05 to 0.5 µM
"CC(=O)N1c2ccc(-c3cnn(C4COC4)c3)cc2N(C(=O)OCC2CC2(F)F)C[C@@H]1C (stereo partly drawn) [Example I-75, (3S)-(2,2-difluorocyclopropyl)methyl 4-acetyl-3-methyl-7-(1-(oxetan-3-yl)-1H-pyrazol-4-yl)-3,4-dihydroquinoxaline-1(2H)-carboxylate]",1 to 10 µM,> 0.5 µM
"CC(=O)N1c2ccc(-c3cnn(C4COC4)c3)cc2N(C(=O)OC2(C)CC2)C[C@@H]1C [Example I-76, (S)-1-methylcyclopropyl 4-acetyl-3-methyl-7-(1-(oxetan-3-yl)-1H-pyrazol-4-yl)-3,4-dihydroquinoxaline-1(2H)-carboxylate]",1 to 10 µM,0.05 to 0.5 µM
"CC(=O)N1c2ccc(-c3cnn(C4COC4)c3)cc2N(C(=O)OCC(F)F)C[C@@H]1C [Example I-84, (S)-2,2-difluoroethyl 4-acetyl-3-methyl-7-(1-(oxetan-3-yl)-1H-pyrazol-4-yl)-3,4-dihydroquinoxaline-1(2H)-carboxylate]",1 to 10 µM,> 0.5 µM
"C[C@H]1CN(c2nc3ccccc3o2)c2cc(-c3cnn(C4CC4)c3)ccc2N1C(=O)C1CC1 [Example I-92, (S)-(4-(benzo[d]oxazol-2-yl)-6-(1-cyclopropyl-1H-pyrazol-4-yl)-2-methyl-3,4-dihydroquinoxalin-1 (2H)-yl)(cyclopropyl)methanone]",1 to 10 µM,0.05 to 0.5 µM
"C[C@H]1CN(C(=O)c2ccco2)c2cc(-c3ccc(S(C)(=O)=O)cc3)ccc2N1S(C)(=O)=O [Example I-96, (S)-furan-2-yl(3-methyl-4-(methylsulfonyl)-7-(4-(methylsulfonyl)phenyl)-3,4-dihydroquinoxalin-1(2H)-yl)methanone]",> 10 µM,> 0.5 µM
"CC(=O)N1c2ccc(Oc3ccccc3)nc2N(C(=O)C2CC2)C[C@@H]1C [Example I-97, (S)-1-(4-(cyclopropanecarbonyl)-2-methyl-6-phenoxy-3,4-dihydropyrido[2,3-b]pyrazin-1(2H)-yl)ethanone]",> 10 µM,> 0.5 µM

# Further lines, results first:
IC50 (BRD4 BD1),IC50 (BRD4 BD2),SMILES
1 to 10 µM,0.05 to 0.5 µM,"CC(=O)N1c2ccc(-c3cnn(C4COC4)c3)cc2N(C(=O)[C@@H]2CC2(Cl)Cl)C[C@@H]1C (single isomer, unassigned) [Example I-112]"
1 to 10 µM,0.05 to 0.5 µM,"CC[C@H]1CN(C(=O)c2ccco2)c2cc(-c3ccc(S(C)(=O)=O)cc3)ccc2N1C(C)=O [Example I-6, (S)-1-(2-ethyl-4-(furan-2-carbonyl)-6-(4-(methylsulfonyl)phenyl)-3,4-dihydroquinoxalin-1(2H)-yl)ethan-1-one]"
1 to 10 µM,0.05 to 0.5 µM,"CC(=O)N1c2ccc(-c3cnn(C4COC4)c3)cc2N(C(=O)C2CCC2)C[C@@H]1C [Example I-11, (S)-1-(4-(cyclobutanecarbonyl)-2-methyl-6-(1-(oxetan-3-yl)-1H-pyrazol-4-yl)-3,4-dihydroquinoxalin-1(2H)-yl)ethanone]"
0.1 to 1 µM,< 0.05 µM,"CC(=O)N1c2ccc(-c3ccc(S(C)(=O)=O)cc3)cc2N(C(=O)OC2CCC(F)(F)CC2)C[C@@H]1C [Example I-32, (S)-4,4-difluorocyclohexyl 4-acetyl-3-methyl-7-(4-(methylsulfonyl)phenyl)-3,4-dihydroquinoxaline-1(2H)-carboxylate]"
1 to 10 µM,> 0.5 µM,"CC(=O)N1c2ccc(-c3ccc(S(C)(=O)=O)cc3)cc2N(c2ncccn2)C[C@@H]1C [Example I-45, (S)-1-(2-methyl-6-(4-(methylsulfonyl)phenyl)-4-(pyrimidin-2-yl)-3,4-dihydroquinoxalin-1(2H)-yl)ethanone]"
1 to 10 µM,< 0.05 µM,"CC(=O)N1c2ccc(-c3ccc(S(C)(=O)=O)cc3)cc2N(c2ccccn2)C[C@@H]1C [Example I-47, (S)-1-(2-methyl-6-(4-(methylsulfonyl)phenyl)-4-(pyridin-2-yl)-3,4-dihydroquinoxalin-1 (2H)-yl)ethan-1-one]"
1 to 10 µM,0.05 to 0.5 µM,"CC(=O)N1c2ccc(-c3ccc(S(C)(=O)=O)cc3)cc2N(c2ncc3ccccc3n2)C[C@@H]1C [Example I-48, (S)-1-(2-methyl-6-(4-(methylsulfonyl)phenyl)-4-(quinazolin-2-yl)-3,4-dihydroquinoxalin-1(2H)-yl)ethanone]"
1 to 10 µM,> 0.5 µM,"CC(=O)N1c2ccc(-c3ccc(S(C)(=O)=O)cc3)cc2N(c2nccc(-c3ccccc3)n2)C[C@@H]1C [Example I-49, (S)-1-(2-methyl-6-(4-(methylsulfonyl)phenyl)-4-(4-phenylpyrimidin-2-yl)-3,4-dihydroquinoxalin-1(2H)-yl)ethanone]"
1 to 10 µM,> 0.5 µM,"CC(=O)N1c2ccc(-c3ccc(S(C)(=O)=O)cc3)cc2N(c2ncc(-c3ccccc3)cn2)C[C@@H]1C [Example I-50, (S)-1-(2-methyl-6-(4-(methylsulfonyl)phenyl)-4-(5-phenylpyrimidin-2-yl)-3,4-dihydroquinoxalin-1(2H)-yl)ethanone]"
1 to 10 µM,> 0.5 µM,"CC(=O)N1c2cnc(-c3ccc(S(C)(=O)=O)cc3)cc2N(C(=O)OC(C)C)C[C@@H]1C [Example I-58, isopropyl (S)-4-acetyl-3-methyl-7-(4-(methylsulfonyl)phenyl)-3,4-dihydro pyrido[3,4-b]pyrazine-1 (2H)-carboxylate]"
1 to 10 µM,> 0.5 µM,"CC(=O)N1c2ccc(-c3cnn(C4COC4)c3)cc2N(C(=O)OCC2(C)COC2)C[C@@H]1C [Example I-61, (S)-(3-methyloxetan-3-yl)methyl 4-acetyl-3-methyl-7-(1-(oxetan-3-yl)-1H-pyrazol-4-yl)-3,4-dihydroquinoxaline-1(2H)-carboxylate]"
1 to 10 µM,0.05 to 0.5 µM,"CCC1(COC(=O)N2C[C@H](C)N(C(C)=O)c3ccc(-c4cnn(C5COC5)c4)cc32)COC1 [Example I-63, (S)-(3-ethyloxetan-3-yl)methyl 4-acetyl-3-methyl-7-(1-(oxetan-3-yl)-1H-pyrazol-4-yl)-3,4-dihydroquinoxaline-1(2H)-carboxylate]"
0.1 to 1 µM,0.05 to 0.5 µM,"CC(=O)N1c2ccc(-c3cnn(C4COC4)c3)cc2N(C(=O)OCC(C)(F)F)C[C@@H]1C [Example I-68, (S)-2,2-difluoropropyl 4-acetyl-3-methyl-7-(1-(oxetan-3-yl)-1H-pyrazol-4-yl)-3,4-dihydroquinoxaline-1(2H)-carboxylate]"
